Assay results taken from publication PMC8657773, “Development of a PROTAC-Based Targeting Strategy Provides a Mechanistically Unique Mode of Anti-Cytomegalovirus Activity” (International Journal of Molecular Sciences, 2021).
Like-named read-outs stand apart in the source and are kept apart here.

Key:
SARS-CoV-2 d6-YFP [1] = test: microbe, parasite or virus in culture; format: cell-based
HAdV-2 = HAdV-2 plaque formation assay in HFFs; format: cell-based, human adenovirus type 2
MCMV Smith-GFP = test: microbe, parasite or virus in culture; format: cell-based, murine CMV; conditions: for SI: MCMV/MEF
VZV Oka-GFP = format: cell-based, varicella zoster virus; conditions: HFF, 1× TCID25^7d, 6 d p.i.
in vitro = format: cell-based
Description: (§1) Drug induced cytotoxicity in HFF and other cell types was measured as a reduction of cell viability determined by Neutral Red uptake assay (NRA), as described previously. Briefly, compound treated cells were incubated with a final concentration of 40 μg/mL Neutral Red (Sigma Aldrich, St. Louis, MO, USA) for 1 to 4 h, depending on the cell type. The amount of incorporated Neutral Red was released from the cells by incubation with destaining solution (50% ethanol, 49% H2O, 1% acetic acid), and subsequently quantitated in a microplate reader by fluorescence measurement using 560/630 nm for excitation/emission, respectively. For determination of lactate dehydrogenase release into the cell culture supernatant, the CytoTox 96® Non-Radioactive Cytotoxicity Assay (Promega, Madison, WI, USA) was used according to the manufacturer’s protocol. Values were normalized to maximal release of LDH by measuring lysates of solvent-treated control cells. Cell viability was defined as the absence of cytotoxicity.

HFFs = test: in vitro; format: cell-based; conditions: human
Description: as §1

SARS-CoV-2 d6-YFP [2] = system: SARS-CoV-2 d6-YFP; design: method as in PMID 34578109; conditions: human Caco-2 cells, previously demonstrated; ref [41]; cited from earlier work
HCMV AD169-GFP = test: microbe, parasite or virus in culture; format: cell-based, Human cytomegalovirus; conditions: for SI: HCMV AD169-GFP/HFF
TEV-1 trophoblast cells = test: Transwell migration assay, HCMV AD169-infected TEV-1 trophoblasts; format: cell-based, human; conditions: HCMV AD169-infected TEV-1 (MOI 2), 10 µM, vs infected untreated cells (p = 0.999)

Structure (SMILES): CC(C)(C)c1cnc(CSc2cnc(NC(=O)C3CCNCC3)s2)o1 [SNS032]
- EC50 (SARS-CoV-2 d6-YFP [1]): 0.18 ± 0.03 µM
- SI (SARS-CoV-2 d6-YFP [1]; Caco-2, conventional treatment): 340
- SI (SARS-CoV-2 d6-YFP [1]; Caco-2, only pretreatment): 397
- EC50 (SARS-CoV-2 d6-YFP [1]; Severe acute respiratory syndrome coronavirus 2, Caco-2): 0.15 ± 0.03 µM
- EC50 (SARS-CoV-2 d6-YFP [1]; Severe acute respiratory syndrome coronavirus 2, Caco-2, 30 h): 0.175 ± 0.25 µM
- EC50 (HAdV-2; HAdV-2, HFF, 10 d p.i.): inactive
- impact on HAdV-2 plaque formation (HAdV-2; HFFs, at concentrations (0.03 µM) that produced anti-HCMV activity): none of the drugs produced a measurable impact
- EC50 (MCMV Smith-GFP; Human betaherpesvirus 5, in Mus musculus, 120 h, MCMV Smith-GFP, MEF, 1× TCID25^5d, 5 d p.i., Table 1 summary): 0.29 ± 0.05 µM
- SI (MCMV Smith-GFP; Figure 6 experiment): 3.5
- SI (MCMV Smith-GFP; Table 1 summary): 3.5
- EC50 (VZV Oka-GFP): inactive
- CC50 at 48 h (in vitro; human): 59.5 ± 7 µM
- CC50 (in vitro; human, CC50): 0.24 ± 0.022 µM
- CC50 (in vitro; mouse, CC50): 1.03 ± 0.05 µM
- CC50 at 5 d (in vitro; mouse, CC50): ~1 µM
- CC50 (HFFs): 0.22 ± 0.04 µM
- impairment of SARS-CoV-2 replication (SARS-CoV-2 d6-YFP [2]): effective
- SI (HCMV AD169-GFP; Table 1 summary): 2.0
- SI (HCMV AD169-GFP; representative experiment (Figure 3)): 2.3
- EC50 (HCMV AD169-GFP; Human betaherpesvirus 5, AD169, 168 h): 0.105 ± 0.004 µM
- EC50 (HCMV AD169-GFP; Human betaherpesvirus 5, AD169, HFF-1, 168 h): 0.11 ± 0.02 µM

Structure (SMILES): Nc1nc(O)c2ncn(COC(CO)CO)c2n1 [ganciclovir]
- resolving HCMV inhibition of trophoblast migration (TEV-1 trophoblast cells): no effect

Structure (SMILES): Cc1c(Br)c(Br)c2c3c1nc(N1CCNCC1)n3CCC2 [SEL120]
- EC50 (HCMV AD169-GFP; Human betaherpesvirus 5, AD169): 0.12 ± 0.07 µM
